A short description of data set [1]: Bioavailability when dosed as a crystalline solid (dogs). In kind it is in vivo.
The nature of data set [2]: Bioavailability when dosed as a crystalline solid (rats). Format: in vivo.
A short description of data set [3]: Compound I Form I solubility in various liquid vehicles. Format: physicochemical. As to conditions: aqueous.
The nature of data set [4]: Bioavailability (drug plasma levels) from liquid-filled capsule dosage form. Format: in vivo. The settings on record: compound in solution in liquid and semi-solid excipients, versus crystalline solid.

In general, aqueous solubility refers to the dissolved amount per volume that the medium holds.

On to “3-[(3aR,4R,5S,7aS)-5-{(1R)-1-[3,5-bis(Trifluoromethyl)phenyl]ethoxy}-4-(4-fluorophenyl)-octahydro-2H-isoindol-2-yl]cyclopent-2-en-1-one [Compound I]”, for which the bioavailability result in data set [1] is “poorly bioavailable”; in data set [2], “poorly bioavailable”; in data set [4], “increased dramatically”. Besides, the aqueous solubility in data set [3] is < 0.2 µg/mL.

Values taken from patent US20100209496A1, “LIQUID AND SEMI-SOLID PHARMACEUTICAL FORMULATIONS FOR ORAL ADMINISTRATION OF A SUBSTITUTED AMIDE” (priority 2006, published 2010).
